Each compound was assayed against Human Factor D (Homo sapiens (Human), UniProt P00746) (assay: Human Factor D Assay). Conditions: Factor D inhibition, assay of Example 10; read-out: IC5 (Stars).
Type: biochemical
Method in brief: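 Serum-purified Factor D (80 nM final) preincubated 5 min at room temperature with compound in 50 mM Tris, 1 M NaCl, pH 7.5. Z-L-Lys-SBz and DTNB added at 100 μM each; A405 followed every 30 s for 30 min. IC50 from nonlinear regression of rates versus concentration.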

Chain of Human Factor D (P00746 26-253): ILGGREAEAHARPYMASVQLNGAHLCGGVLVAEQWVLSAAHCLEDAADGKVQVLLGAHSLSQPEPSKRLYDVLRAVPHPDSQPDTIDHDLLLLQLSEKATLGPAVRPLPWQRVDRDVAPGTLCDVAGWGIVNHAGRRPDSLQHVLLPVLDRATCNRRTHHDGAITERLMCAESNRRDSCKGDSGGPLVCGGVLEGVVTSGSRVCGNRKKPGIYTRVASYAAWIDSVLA

CC(=O)c1nn(CC(=O)N2[C@H](C(=O)N[C@@H](C)COC(F)(F)F)C[C@@]3(C)C[C@@H]23)c2ccc(-c3cnc(C)nc3)cc12 [Compound 554, (1R,3S,5R)-2-(2-(3-acetyl-5-(2-methylpyrimidin-5-yl)-1H-indazol-1-yl)acetyl)-5-methyl-N-((S)-1-(trifluoromethoxy)propan-2-yl)-2-azabicyclo[3.1.0]hexane-3-carboxamide] was tested. Which IC50 did it give?
Its IC50 is less than 1000 nM.

Which IC50 does the source give for CC(=O)c1nn(CC(=O)N2[C@H](C(=O)Nc3cc(Cc4ccccc4)cc(Br)n3)C[C@@]3(C)C[C@@H]23)c2ccc(-c3cnc(C)nc3)cc12 [Compound 555, (1R,5R)-2-(2-(3-acetyl-5-(2-methylpyrimidin-5-yl)-1H-indazol-1-yl)acetyl)-N-(4-benzyl-6-bromopyridin-2-yl)-5-methyl-2-azabicyclo[3.1.0]hexane-3-carboxamide] here?
Its IC50 is less than 1000 nM.

How did the IC50 turn out when CC(=O)c1nn(CC(=O)N2[C@H](C(=O)Nc3cc(-c4ccccc4O)cc(Br)n3)C[C@@]3(C)C[C@@H]23)c2ccc(-c3cnc(C)nc3)cc12 [Compound 556, (1R,3S,5R)-2-(2-(3-acetyl-5-(2-methylpyrimidin-5-yl)-1H-indazol-1-yl)acetyl)-N-(6-bromo-4-(2-hydroxyphenyl)pyridin-2-yl)-5-methyl-2-azabicyclo[3.1.0]hexane-3-carboxamide] was run?
Its IC50 is less than 1000 nM.

With CC(=O)c1nn(CC(=O)N2[C@H](C(=O)Nc3cc(COCc4ccccc4)cc(Br)n3)C[C@@]3(C)C[C@@H]23)c2ccc(-c3cnc(C)nc3)cc12 [Compound 557, (1R,3S,5R)-2-(2-(3-acetyl-5-(2-methylpyrimidin-5-yl)-1H-indazol-1-yl)acetyl)-N-(4-6-bromopyridin-2-yl)-5-methyl-2-azabicyclo[3.1.0]hexane-3-carboxamide] as the compound, how does the IC50 read?
The IC50 was less than 1000 nM.

With CC(=O)c1nn(CC(=O)N2[C@H](C(=O)N[C@H](C)c3ccccc3)C[C@@]3(C)C[C@@H]23)c2ccc(-c3cnc(C)nc3)cc12 [Compound 558, (1R,3S,5R)-2-(2-(3-acetyl-5-(2-methylpyrimidin-5-yl)-1H-indazol-1-yl)acetyl)-5-methyl-N-((R)-1-phenylethyl)-2-azabicyclo[3.1.0]hexane-3-carboxamide] as the compound, how does the IC50 read?
The IC50 was less than 1000 nM.

How did the IC50 turn out when CC(=O)c1nn(CC(=O)N2[C@H](C(=O)NC/C(F)=C(/C)c3ccccc3)C[C@@]3(C)C[C@@H]23)c2ccc(-c3cnc(C)nc3)cc12 [Compound 559, (1R,3S,5R)-2-(2-(3-acetyl-5-(2-methylpyrimidin-5-yl)-1H-indazol-1-yl)acetyl)-N-((E)-2-fluoro-3-phenylbut-2-en-1-yl)-5-methyl-2-azabicyclo[3.1.0]hexane-3-carboxamide] was run?
Its IC50 is less than 1000 nM.

For CC(=O)c1cn(CC(=O)N2[C@H](C(=O)NC/C(F)=C(/C)c3ccccc3)C[C@@]3(C)C[C@@H]23)c2cnc(-c3cnc(C)nc3)cc12 [Compound 560], which IC50 is on record?
The IC50 was less than 1000 nM.

CC(=O)c1nn(CC(=O)N2[C@H](C(=O)NC/C(F)=C(/C)c3ccccc3)C[C@@]3(C)C[C@@H]23)c2c(C)cc(-c3cnc(C)nc3)cc12 [Compound 561, (1R,3S,5R)-2-(2-(3-acetyl-7-methyl-5-(2 methylpyrimidin-5-yl)-1H-indazol-1-yl)acetyl)-N-((E)-2-fluoro-3-phenylbut-2-en-1-yl)-5-methyl-2-azabicyclo[3.1.0]hexane-3-carboxamide] was tested. Which IC50 did it give?
The IC50 was less than 1000 nM.

Cc1ncc(-c2ccc3c(c2)c(C(=O)NC(C)C)nn3CC(=O)N2[C@H](C(=O)Nc3nc(Br)ccc3C)C[C@@]3(C)C[C@@H]23)cn1 [Compound 562, 1-(2-((1R,3S,5R)-3-((6-bromo-3-methylpyridin-2-yl)carbamoyl)-5-methyl-2-azabicyclo[3.1.0]hexan-2-yl)-2-oxoethyl)-N-isopropyl-5-(2-methylpyrimidin-5-yl)-1H-indazole-3-carboxamide] was tested. Which IC50 did it give?
The IC50 was 1000 to 10000 nM.

CC(=O)c1nn(CC(=O)N2[C@H](C(=O)Nc3cc(CC(F)(F)F)cc(Br)n3)C[C@@]3(C)C[C@@H]23)c2ccc(-c3cnc(C)nc3)cc12 [Compound 572, (1R,3S,5R)-2-(2-(3-acetyl-5-(2-methylpyrimidin-5-yl)-1H-indazol-1-yl)acetyl)-N-(6-bromo-4-(2,2,2-trifluoroethyl)pyridin-2-yl)-5-methyl-2-azabicyclo[3.1.0]hexane-3-carboxamide] was tested. Which IC50 did it give?
The IC50 was less than 1000 nM.

For CC(=O)c1nn(CC(=O)N2[C@H](C(=O)NCCOC(F)(F)F)C[C@@]3(C)C[C@@H]23)c2ccc(-c3cnc(C)nc3)cc12 [Compound 579, (1R,3S,5R)-2-(2-(3-acetyl-5-(2-methylpyrimidin-5-yl)-1H-indazol-1-yl)acetyl)-5-methyl-N-(2-(trifluoromethoxy)ethyl)-2-azabicyclo[3.1.0] hexane-3-carboxamide], which IC50 is on record?
The IC50 was less than 1000 nM.

How did the IC50 turn out when CC(=O)c1nn(CC(=O)N2[C@H](C(=O)N[C@@H](C)CC(C)(C)C)C[C@@]3(C)C[C@@H]23)c2ccc(-c3cnc(C)nc3)cc12 [Compound 588, (1R,3S,5R)-2-(2-(3-acetyl-5-(2-methylpyrimidin-5-yl)-1H-indazol-1-yl)acetyl)-N-((S)-4,4-dimethylpentan-2-yl)-5-methyl-2-azabicyclo[3.1.0]hexane-3-carboxamide] was run?
Its IC50 is 1000 to 10000 nM.

For CC(=O)c1nn(CC(=O)N2[C@H](C(=O)N[C@H](C)CC(C)(C)C)C[C@@]3(C)C[C@@H]23)c2ccc(-c3cnc(C)nc3)cc12 [Compound 589, (1R,3S,5R)-2-(2-(3-acetyl-5-(2-methylpyrimidin-5-yl)-1H-indazol-1-yl)acetyl)-N-((R)-4,4-dimethylpentan-2-yl)-5-methyl-2-azabicyclo[3.1.0]hexane-3-carboxamide], which IC50 is on record?
The IC50 was less than 1000 nM.

With CC(=O)c1nn(CC(=O)N2[C@H](C(=O)N[C@@H](C)c3cccc(Cl)c3F)C[C@@]3(C)C[C@@H]23)c2ccc(-c3cnc(C)nc3)cc12 [Compound 590, (1R,3S,5R)-2-(2-(3-acetyl-5-(2-methylpyrimidin-5-yl)-1H-indazol-1-yl)acetyl)-N-((S)-1-(3-chloro-2-fluorophenyl)ethyl)-5-methyl-2-azabicyclo[3.1.0]hexane-3-carboxamide] as the compound, how does the IC50 read?
The IC50 was less than 1000 nM.

Which IC50 does the source give for CC(=O)c1nn(CC(=O)N2[C@H](C(=O)NCc3ccncn3)C[C@@]3(C)C[C@@H]23)c2c(C)cc(-c3cnc(C)nc3)cc12 [Compound 592, (1R,3S,5R)-2-(2-(3-acetyl-7-methyl-5-(2-methylpyrimidin-5-yl)-1H-indazol-1-yl)acetyl)-5-methyl-N-(pyrimidin-4-ylmethyl)-2-azabicyclo[3.1.0]hexane-3-carboxamide] here?
Its IC50 is 1000 to 10000 nM.

CC(=O)c1nn(CC(=O)N2[C@H](C(=O)N[C@@H](C)c3ccc(C)cc3)C[C@@]3(C)C[C@@H]23)c2ccc(-c3cnc(C)nc3)cc12 [Compound 598, (1R,3S,5R)-2-(2-(3-acetyl-5-(2-methylpyrimidin-5-yl)-1H-indazol-1-yl)acetyl)-5-methyl-N-((S)-1-(p-tolyl)ethyl)-2-azabicyclo[3.1.0]hexane-3-carboxamide] was tested. Which IC50 did it give?
The IC50 was 1000 to 10000 nM.

Same assay, conditions: Table 8; Factor D 80 nM, substrate Z-L-Lys-SBz; read-out: IC50

For CCC(C)NC(=O)c1nn(CC(=O)N2[C@H](C(=O)Nc3nc(Br)ccc3C)C[C@@]3(C)C[C@@H]23)c2ccc(-c3cnc(C)nc3)cc12 (stereo partly drawn) [Compound 569, 1-(2-((1R,3S,5R)-3-((6-bromo-3-methylpyridin-2-yl)carbamoyl)-5-methyl-2-azabicyclo[3.1.0]hexan-2-yl)-2-oxoethyl)-N-(sec-butyl)-5-(2-methylpyrimidin-5-yl)-1H-indazole-3-carboxamide], which IC50 is on record?
Its IC50 is 1000 to 10000 nM.

Reference: patent US11084800B2 (Achillion Pharmaceuticals, Inc., priority 2017, dated 2021)
